Assays:
Format in all cases: cell-based
[1] = system: Bacillus strain secreting inactive 10R protease (S143A) (SOL218); assay: Plate growth of Bacillus secreting inactive 10R protease on LB agar with MGMM and CMA; conditions: LB agar with MGMM, 37° C. overnight
Excerpt: (§1) We wanted to find a concentration of carboxymethoxylhydroxylamine (CMA) that allows only protease-secreting Bacillus colonies to grow in the presence of the small peptide met-gly-met-met (MGMM). CMA inhibits the methionine synthesis in Bacillus cells, which severely hampers their growth. However, in the presence of MGMM, protease-secreting Bacillus cells can grow on CMA containing media. Secreted proteases degrade the MGMM peptide thereby releasing free methionine residues, which are taken up by the protese-secreting Bacillus cells and used for protein synthesis.
(§2) 500 ml LB agar was melted and placed in an incubator until the agar reached 60° C. 5 ml met-gly-met-met (MGMM, Sigma M4786-250MG) (5 mg/ml) and 300 microliter 1% chloramphenicol (in 70% ethanol) was added to the agar.
(§3) 4×25 ml media was transferred with a 25 ml Stripette™ to clean 25 ml Nunc™ containers. Different amounts of CMA (Aldrich C13408-1 g) were added to the media as indicated in the scheme below. All 25 ml media was poured into 9 cm petri dishes and dried in a clean bench; except for the “6×CMA on the plate” where 25 ml media was poured on a 9 cm petridish and dried and 600 microliter CMA (0.56 mg/ml) was spread on the plate afterwards.
(§4) The two micro-organisms were streaked on the 6 different types of plates. All plates were incubated upside down at 37° C. overnight.

[2] = system: Bacillus strain secreting a wildtype protease denoted '10R' (SOL000); assay: Plate growth of Bacillus secreting wildtype 10R protease on LB agar with MGMM and CMA; conditions: for Growth on the plate, 10R WT (SOL000): LB agar with MGMM, 37° C. overnight
Excerpt: as §1, §2, §3, §4

[3] = system: Saccharomyces cerevisiae JG 169; assay: Yeast growth on triglyceride (olive oil) plates containing cerulenin; conditions: 5 mg cerulenin per approx. 510 ml SC-ura agar with olive oil; pENI4158 (lipase) vs pENI3659 (control) transformants
Method: Plasmids pENI3659 (control) and pENi4158 (with lipase gene) were transformed into the yeast strain Saccharomyces cerevisiae JG 169 (MAT-alpha; ura 3-52; leu 2-3, 112; his 3-D200; pep 4-113; prc1::HIS3; prb1::LEU2). The transformed yeast was streaked onto plates containing cerulenine and olive oil.
To 450 ml SC-ura-basic agar was added 50 ml 20% glucose and 10 ml olive oil. An UltraTurax™ […] (IKA Labortechnik, Germany) was used to disperse the olive oil. 5 mg cerulenin dissolve in 1 ml ethanol was added and 500 microliter ampicillin (100 mg/ml)). This mix was poured into […] 9 cm petri dishes.
SC-ura-basic agar: 7.5 g Yeast Nitrogen Base without amino acids, 11.3 g Bernstein, 6.8 g NaOH, 5.6 g casamino acids, 0.1 g L-tryptophan, 20 g agar in total of 900 ml water.

[4] = 5xCMA in the plate, 11.2 mg/L CMA
[5] = 6xCMA in the plate, 13.4 mg/L CMA
[6] = 6xCMA on the plate (spread on dried plate), 13.4 mg/L CMA
[7] = 7xCMA in the plate, 15.7 mg/L CMA
[8] = 8xCMA in the plate, 17.9 mg/L CMA

Compound	Growth on the plate, 10R inactive (SOL218) [1, 4]	Growth on the plate, 10R inactive (SOL218) [1, 5]	Growth on the plate, 10R inactive (SOL218) [1, 6]	Growth on the plate, 10R inactive (SOL218) [1, 7]	Growth on the plate, 10R inactive (SOL218) [1, 8]	Growth on the plate, 10R WT (SOL000) [2, 4]	Growth on the plate, 10R WT (SOL000) [2, 5]	Growth on the plate, 10R WT (SOL000) [2, 6]	Growth on the plate, 10R WT (SOL000) [2, 7]	Growth on the plate, 10R WT (SOL000) [2, 8]	Growth of Bacillus transformant cells which secrete active 10R protease, versus those that do not ([2]; LB agar with 11.2 mg/L CMA as well as MGMM in the plate, summary of Table 3)	Growth of transformed yeast on the triglyceride plates in the presence of cerulinine [3]
O=C(O)CONO [CMA, carboxymethoxylhydroxylamine]	No	No	No	No	No	Yes	No	No	No	No	only those can grow	–
C/C=C/C/C=C/CCC(=O)[C@H]1O[C@H]1C(N)=O [cerulinine, cerulenin]	–	–	–	–	–	–	–	–	–	–	–	Only yeast cells transformed with pENI4158, which express active lipase, were able to grow
